Measurements reported in US20070270429A1, “Function Inhibitor of Effector Cell” (priority 2003, published 2007).
Where two headings read alike, the source gives them in different places.

Legend:
[1] = system: human CD4-positive Th1 differentiation cell; test: Cell growth inhibition test of human CD4-positive Th1 differentiation cell (anti-CD3 antibody stimulation, BrdU uptake); assay type: cell-based
Protocol: After treating the cells with BrdU for a predetermined period of time, the plate was centrifuged (300×g, 10 minutes), and then turned upside down and lightly shaken to remove the labeled medium. The plate was dried (for about 15 minutes) using a hair dryer. A cell fixing and DNA denaturing solution (200 μl, attached to the kit) was added to each well and left alone for 30 minutes. After removing the cell fixing and DNA denaturing solution and further removing water, a peroxidase-labeled anti-BrdU antibody (anti-BrdU-POD reaction solution) (100 μl) (attached to the kit) was added thereto and left alone at room temperature for 90 minutes. The antibody solution was discarded, each well was washed three times with PBS (200 μl), water was discarded, and then the substrate solution (100 μl) (attached to the kit) was added thereto. After carrying out the enzyme reaction for a period of 5 to 30 minutes, 1 N sulfuric acid solution (25 μl) was added thereto and stirred on a shaker. The absorbance of samples was measured by a microplate reader (SPECTRAMAX-PRO) at 450 nm (control wavelength: 690 nm).
The cells fractionated by the method described in the above-described (2-1) were inoculated into a 96 well plate coated with the anti-human CD3 antibody, at a cell density of 2×10^5 cells/100 μl/well, a medium (100 μl) containing 2 times concentration solution of each drug to be tested (contains 0.2% DMSO) was added thereto, and the cells were cultured for 48 hours in a CO2 incubator (5% CO2, humidity 95%) kept at 37° C. The BrdU uptake activity was measured by the method described in the above-described (2-4).
The cell growth inhibition activity of human CD8-positive memory T cell by the compounds of the […] was calculated as the inhibition ratio (%) in accordance with the following formula, in which the value of well to which the medium containing DMSO but not containing the drug to be tested was added was used as the control value (A), and the value of well to which the DMSO-containing medium containing the drug to be tested was added as the value (B). Inhibition ratio (%)=[(A−B)/A]×100 Results:
A heparinized blood sample was collected from a human, healthy volunteer, and peripheral blood mononuclear cell (PBMC) was isolated by the density gradient centrifugation described in the above-described (2-1). CD4-positive T cell was isolated from PBMC by a negative selection method using Human T Cell CD4 Subset Column Kit (R & D Systems, Inc). Specifically, the cells to be removed such as B cell, CD8-positive T cell, monocyte and the like were labeled with antibodies by adding an antibody cocktail (1 ml) (attached to the kit) to PBMC (up to 2×10^8 cells) and incubating at room temperature for 15 minutes. […]

[2] = target: T1, human CCR5 (Homo sapiens, UniProt P51681); test: Migration test of human CCR5 expression cell (hCCR5-Ba/F3 cell); assay type: cell-based; conditions: hCCR5-Ba/F3 cells, 3 hours
T1 construct: expressed in transfected cells
Protocol: The Ba/F3 cell was statically cultured in a CO2 incubator (temperature: 37° C., CO2 concentration: 5%, humidity: 100%) using RPMI-1640 medium (Gibco BRL) containing an antibiotic preparation (Antibiotic-Antimycotic) (final concentration: penicillin G sodium (100 U/ml), streptomycin sulfate (100 μg/ml), amphotericin B (0.25 μg/ml)) (Gibco BRL), fetal bovine serum (FBS) (10%) and interleukin 3 (IL-3) (5 ng/ml) (Pepro Tech, Inc). For the culturing of an external gene stably over-expressing cell, blasticidin (Kaken Pharmaceutical) was added to the above-described medium to a final concentration of 10 μg/ml.
The plasmid for human CCR5 expression (pEF-BOS-bsr′/hCCR5) was made into linear chain by digesting with AatII. The linear-chained plasmid was purified using QIA Quick PCR Purification Kit (QIAGEN) and then transferred into Ba/F3 cell by electroporation (Gene Pulser (BIO RAD) 960 μF/250 V). The cells were inoculated into a 96 well culture plate at a cell density of 1000, 100 or 10 cells/100 μl/well, and 48 hours thereafter, blasticidin was added thereto to a final concentration of 10 μg/ml to carry out cloning of blasticidin resistant strains, thereby establishing a stable over-expression clone capable of expressing the transferred external gene (hCCR5-Ba/F3 cell).
The test was started by superposing the upper chamber on the lower chamber, and the cells were cultured for 3 hours in a CO2 incubator (5% CO2, humidity 95%) kept at 37° C. Outside bottom moiety of the upper chamber was washed out into the lower chamber using 0.5 ml of a washing buffer (phosphate buffered saline (PBS) containing sodium ethylenediaminetetraacetate (EDTA) (2 mM (and FBS (0.1%)), and the number of cells in the lower chamber was counted using a flow cytometer (Becton Dickinson).
The migration inhibition activity by the compounds of the present invention was calculated as the inhibition ratio (%) in accordance with the following formula, in which the value of well to which the medium containing DMSO but not containing the drug to be tested was added was used as the control value (A), and the value of well to which the DMSO-containing medium containing the drug to be tested was added as the value (B). Inhibition ratio (%)=[(A−B)/A]×100

[3] = MIP-1α 3 nM in lower chamber, read-out: IC50 (nM), migration inhibition, chemokine MIP-1α
[4] = MIP-1β 3 nM in lower chamber, read-out: IC50 (nM), migration inhibition, chemokine MIP-1β
[5] = RANTES 3 nM in lower chamber, read-out: IC50 (nM), migration inhibition, chemokine RANTES

T1 sequence (P51681 whole entry): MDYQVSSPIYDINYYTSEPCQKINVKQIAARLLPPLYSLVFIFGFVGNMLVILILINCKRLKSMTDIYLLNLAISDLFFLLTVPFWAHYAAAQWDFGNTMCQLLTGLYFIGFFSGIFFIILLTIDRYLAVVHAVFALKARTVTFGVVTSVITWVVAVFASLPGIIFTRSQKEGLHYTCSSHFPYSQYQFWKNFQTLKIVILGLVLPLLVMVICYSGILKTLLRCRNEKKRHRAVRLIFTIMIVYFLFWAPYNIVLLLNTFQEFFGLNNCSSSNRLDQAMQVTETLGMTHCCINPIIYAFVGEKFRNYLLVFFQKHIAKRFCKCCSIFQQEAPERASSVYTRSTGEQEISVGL

| Structure (SMILES) | inhibition ratio of cell growth ([1]; 0.1 μM) [%] | inhibition ratio of cell growth ([1]; 10 μM) [%] | IC50 [2, 3] [nM] | IC50 [2, 4] [nM] | IC50 [2, 5] [nM] |
| --- | --- | --- | --- | --- | --- |
| CCCCN1C(=O)[C@@H]([C@H](O)C2CCCCC2)NC(=O)C12CCN(Cc1ccc(Cc3ccc(C(=O)O)cc3OC)cc1)CC2 [Compound (b), 4-[4-({(3R)-1-butyl-3-[(R)-cyclohexyl(hydroxy)methyl]-2,5-dioxo-1,4,9-triazaspiro[5.5]undec-9-yl}methyl)benzyl]-3-methoxybenzoic acid] | −2.3 | 21.8 | 9.8 | 11.1 | 12.4 |
| CCCCN1C(=O)[C@@H]([C@H](O)C2CCCCC2)NC(=O)C12CCN(Cc1ccc(Oc3ccc(C(=O)O)cc3OCC)cc1)CC2.Cl [Compound (c), 4-[4-({(3R)-1-butyl-3-[(R)-cyclohexyl(hydroxy)methyl]-2,5-dioxo-1,4,9-triazaspiro[5.5]undec-9-yl}methyl)phenoxy]-3-ethoxybenzoic acid hydrochloride] | 48.3 | 47.7 | 17.3 | 18.4 | 22.5 |
